Among the data in US20160297763A1, “Heteroaryl hydroxamic acid derivatives and their use in the treatment, amelioration or prevention of a viral disease” (priority 2011, published 2016) are melting point values, retold here.

For `O=C(c1cc(N2CCC3(CC2)OCCO3)ccn1)N(O)Cc1ccccc1`, the melting point was in the range of 98 to 102 °C.

For the compound `C[C@@H]1CN(c2ccnc(C(=O)N(O)Cc3ccccc3)c2)C[C@H](C)O1`, the melting point lay in the range of 180 to 185 °C. Under `Cc1cccc(C(=O)NOCc2ccccc2)n1` stands 75 to 80 °C; under `O=C(NO)c1cc(N2CCOCC2)ccn1`, 215 to 220 °C (dec.); under `O=C(NOCc1ccccc1)c1ccc(-c2ccccc2)cn1`, 155 to 160 °C.

`Cc1c(-c2cccnc2)sc2nc(N)[nH]c(=O)c12`: the melting point was 280 to 290 °C. Under `O=C(NOCc1ccccc1)c1cc(N2CCCCC2)ccn1` stands 135 to 140 °C; under `Cc1c(-c2cnccn2)sc2nc(N)[nH]c(=O)c12`, 280 to 300 °C; under `O=C(NOCc1ccccc1)c1cc2ccccc2cn1`, 85 to 90 °C.

In turn, `Cc1c(Cc2ccc(Cl)cc2)sc2nc(N)[nH]c(=O)c12` registered a melting point of 300 to 320 °C. With `O=C(c1ccc(N2CCCC2)cn1)N(Cc1ccccc1)OCc1ccccc1` the figure was 95 to 100 °C.

Compound `Cc1c(-c2ccccc2Cl)sc2nc(N)[nH]c(=O)c12` showed a melting point of 334 to 336 °C.

Regarding `O=C(NO)c1cc2ccccc2cn1`, the melting point lay in the range of 160 to 165 °C. `CC(C)c1cc2c(=O)[nH]c(N)nc2s1` showed a melting point of 347 to 349 °C. `O=C(NO)c1ccc(N2CCCC2)cn1` yielded a melting point of 220 to 225 °C. Under `Cc1c(-c2cccc(F)c2)sc2nc(N)[nH]c(=O)c12` stands 310 to 330 °C; under `Cc1cccc(-c2ccc(C(=O)N(O)Cc3ccccc3)nc2)c1`, 139 to 140 °C; under `Cc1c(-c2ccc(F)cc2F)sc2nc(N)[nH]c(=O)c12`, 330 to 350 °C. With `Cc1c(-c2cccc(Cl)c2F)sc2nc(N)[nH]c(=O)c12` the figure was 330 to 350 °C.

The compound `Cc1c(-c2ccc(Cl)cc2F)sc2nc(N)[nH]c(=O)c12` gave a melting point of 320 to 340 °C.

As for `CCON(C)C(=O)c1ccc(-c2ccccc2)cn1`, the melting point lay within 70 to 75 °C. With `Cc1c(-c2c(F)ccc(Cl)c2F)sc2nc(N)[nH]c(=O)c12` the figure was 330 to 350 °C. Under `Cc1c(-c2ccc(Cl)c(F)c2)sc2nc(N)[nH]c(=O)c12` stands 350 to 370 °C; under `CN(OCc1ccccc1)C(=O)c1cc2ccccc2cn1`, 70 to 75 °C. With `COc1cc(-c2sc3nc(N)[nH]c(=O)c3c2C)ccc1Cl`, the melting point lay within 312 to 322 °C. With `Cc1cc(-c2sc3nc(N)[nH]c(=O)c3c2C)ccc1Cl` the figure was 330 to 350 °C; with `O=C(c1cc2ccccc2cn1)N(O)CCc1ccccc1`, 90 to 95 °C. Regarding `O=C(NOC(=O)c1cc(N2CCCCC2)ccn1)c1cc(N2CCCCC2)ccn1`, the melting point fell in the range of 210 to 215 °C. Compound `Cc1c(-c2ccc(Cl)c(C(F)(F)F)c2)sc2nc(N)[nH]c(=O)c12` came in with a melting point above 350 °C. In the case of `O=C(c1cc(N2CCCCC2)ccn1)N(O)CCCc1ccccc1`, the melting point was in the range of 125 to 130 °C. Under `Cc1c(-c2ccc(Cl)c(C(=O)N(C)C)c2)sc2nc(N)[nH]c(=O)c12` stands 300 to 320 °C; under `CC(C)c1cccc(-c2ccc(C(=O)NO)nc2)c1`, 130 to 135 °C. Under `CCONC(=O)c1cc(NCCCc2cccc(Cl)c2)ccn1` stands 100 to 105 °C. With `Cc1c(-c2ccc(F)c(C#N)c2)sc2nc(N)[nH]c(=O)c12` the figure was 330 to 350 °C. For `CCONC(=O)c1cc(NCc2cccc(OCc3ccccc3)c2)ccn1.Cl`, the melting point was in the range of 70 to 75 °C. In turn, `Cc1c(-c2ccc(F)c(C#N)c2F)sc2nc(N)[nH]c(=O)c12` showed a melting point of 360 to 380 °C. With `Cc1c(-c2ccccc2)sc2nc(N)[nH]c(=O)c12` the figure was 356 to 358 °C.

`Cc1c(-c2ccc(F)c(C(F)(F)F)c2)sc2nc(N)[nH]c(=O)c12` gave a melting point of 310 to 330 °C. `Cl.O=C(NO)c1cc(NS(=O)(=O)Cc2cccc(F)c2)ccn1`: the melting point was 195 to 200 °C. As for `Cc1c(-c2ccnc(Cl)c2F)sc2nc(N)[nH]c(=O)c12`, the melting point fell in the range of 330 to 350 °C.

For `Cl.O=C(NO)c1cc(NS(=O)(=O)Cc2cccc(Cl)c2)ccn1`, the melting point was in the range of 198 to 204 °C. With `Cc1c(-c2ccc(F)nc2F)sc2nc(N)[nH]c(=O)c12` the figure was 330 to 335 °C; with `Cl.O=C(NO)c1cc(NS(=O)(=O)Cc2ccccc2Cl)ccn1`, 215 to 220 °C; with `Cc1c(-c2ccnc(C(F)(F)F)c2)sc2nc(N)[nH]c(=O)c12`, 335 to 355 °C.

The compound `Cl.O=C(NO)c1cc(NS(=O)(=O)Cc2ccc(Cl)cc2)ccn1` gave a melting point of 210 to 230 °C. Under `Cl.O=C(NO)c1cc(NS(=O)(=O)Cc2cc(Cl)cc(Cl)c2)ccn1` stands 203 to 205 °C. Under `Cc1c(C2=CCNCC2)sc2nc(N)[nH]c(=O)c12` stands 290 to 310 °C; under `Cl.O=C(NO)c1cc(NS(=O)(=O)Cc2ccc(Cl)c(Cl)c2)ccn1`, 228 to 238 °C. Under `O=C(c1ccc(N2CCCC2)cn1)N(O)Cc1ccccc1` stands 115 to 120 °C. In turn, `Cl.O=C(NO)c1cc(NS(=O)(=O)Cc2cccc(Cl)c2Cl)ccn1` showed a melting point of 210 to 218 °C. Under `Cc1c(-c2ccccc2)sc2nc(NCCO)[nH]c(=O)c12` stands 227 to 229 °C; under `Cl.O=C(NO)c1cc(NS(=O)(=O)Cc2cccc(Br)c2)ccn1`, 197 to 205 °C; under `Cc1c(-c2ccccc2)sc2nc(NCCCO)[nH]c(=O)c12`, 227 to 229 °C. With `Cl.O=C(NO)c1cc(NS(=O)(=O)Cc2cccc(C(F)(F)F)c2)ccn1` the figure was 201 to 204 °C; with `Cc1c(-c2ccccc2)sc2nc(NCCN(C)C)[nH]c(=O)c12`, 199 to 201 °C; with `Cl.O=C(NO)c1cc(NS(=O)(=O)C(c2ccccc2)c2ccccc2)ccn1`, 162 to 168 °C. With `Cc1c(-c2ccccc2)sc2nc(Nc3ccccc3)[nH]c(=O)c12` the figure was 270 to 290 °C. Compound `O=C(Nc1ccnc(C(=O)NO)c1)c1ccccc1` displayed a melting point of 175 to 184 °C. Under `Cc1c(-c2ccccc2)sc2nc(NCCN3CCOCC3)[nH]c(=O)c12` stands 240 to 246 °C; under `O=C(c1cc(NS(=O)(=O)Cc2ccccc2)ccn1)N(O)Cc1ccccc1`, 190 to 195 °C. `Cc1c(-c2ccccc2)sc2nc(N3CCOCC3)[nH]c(=O)c12` displayed a melting point of 300 to 320 °C. `O=C(c1cc(NS(=O)(=O)c2ccccc2)ccn1)N(O)Cc1ccccc1` gave a melting point of 175 to 180 °C.

Consider `Cc1c(-c2ccccc2)sc2nc(NCCNC(=O)CCN3CCN(C)CC3)[nH]c(=O)c12`, for which the melting point lay within 235 to 245 °C. Under `Cc1c(-c2ccccc2)sc2nc(NCCNC(=O)CCCN3CCN(C)CC3)[nH]c(=O)c12` stands 192 to 196 °C; under `Cl.O=C(c1cc(NS(=O)(=O)Cc2cccc(F)c2)ccn1)N(O)Cc1ccccc1`, 111 to 113 °C. With `Cl.O=C(c1cc(NS(=O)(=O)Cc2cccc(Cl)c2)ccn1)N(O)Cc1ccccc1` the figure was 115 to 125 °C; with `Nc1nc2sc(-c3ccccc3)c(Cl)c2c(=O)[nH]1`, above 350 °C. Compound `Cl.O=C(c1cc(NS(=O)(=O)Cc2cc(Cl)cc(Cl)c2)ccn1)N(O)Cc1ccccc1` returned a melting point of 189 to 194 °C.

Take `Cl.O=C(c1cc(NS(=O)(=O)Cc2cccc(C(F)(F)F)c2)ccn1)N(O)Cc1ccccc1`: the melting point was 178 to 182 °C. Under `O=C(c1cc(-c2ccc(Cl)cc2)ccn1)N(O)Cc1ccccc1` stands 190 to 195 °C. With `O=C(c1cc(-c2ccc(Cl)c(Cl)c2)ccn1)N(O)Cc1ccccc1` the figure was 125 to 130 °C. Under `NC(=O)c1cccc(-c2ccnc(C(=O)N(O)Cc3ccccc3)c2)c1` stands 158 to 162 °C; under `NC(=O)c1ccc(-c2ccnc(C(=O)N(O)Cc3ccccc3)c2)cc1`, 155 to 160 °C; under `CC(c1ccccc1)c1cc2c(=O)[nH]c(N)nc2s1` (stereo not drawn), 260 to 270 °C.

Compound `CN(O)C(=O)c1cc2ccccc2cn1` showed a melting point of 110 to 115 °C. `CN(C)CCNC(=O)c1cccc(-c2ccnc(C(=O)N(O)Cc3ccccc3)c2)c1` yielded a melting point of 65 to 70 °C. Under `CN(C)S(=O)(=O)c1cccc(-c2ccnc(C(=O)N(O)Cc3ccccc3)c2)c1` stands 110 to 115 °C; under `O=C(c1cc(-c2cccc(CO)c2)ccn1)N(O)Cc1ccccc1`, 150 to 155 °C; under `O=C(c1cc(C2=CCCCC2)ccn1)N(O)Cc1ccccc1`, 118 to 122 °C. Under `CN1CC=C(c2ccnc(C(=O)N(O)Cc3ccccc3)c2)CC1` stands 135 to 155 °C; under `CC(C)(C)OC(=O)N1CC=C(c2ccnc(C(=O)N(O)Cc3ccccc3)c2)CC1`, 125 °C; under `CC(C)(C)OC(=O)N1CCC=C(c2ccnc(C(=O)N(O)Cc3ccccc3)c2)C1`, 128 to 134 °C.

Turning to `O=C(c1cc(-c2ccccc2)ccn1)N(O)Cc1ccc(F)cc1`, the melting point lay in the range of 135 to 140 °C. With `O=C(c1ccc(-c2ccccc2)cn1)N(O)Cc1ccccc1` the figure was 145 to 150 °C; with `O=C(NO)c1ccc(-c2ccccc2)cn1`, 175 to 180 °C.

As to `O=C(c1cc(N2CCCC(F)(F)C2)ccn1)N(O)Cc1ccccc1`, the melting point is 140 to 145 °C. Under `Cl.O=C(c1cc(N2CCC(F)(F)CC2)ccn1)N(O)Cc1ccccc1` stands 90 to 95 °C. The compound `Cl.O=C(c1cc(N2CCC(F)(F)C2)ccn1)N(O)Cc1ccccc1` came in with a melting point of 162 to 166 °C. Under `CC(C)(C)OC(=O)NC1CCN(c2ccnc(C(=O)N(O)Cc3ccccc3)c2)CC1` stands 135 to 140 °C; under `O=C(c1cc(N2CCC(N3CCCC3)CC2)ccn1)N(O)Cc1ccccc1`, 135 to 140 °C.
